Where two headings read alike, the source gives them in different places.
Legend:
Type in all cases: cell-based
[1] = target: T1, human dopamine transporter/SLC6A3 (DAT) (Homo sapiens, UniProt Q01959); experiment: Cellular uptake experiments: [3H]-dopamine reuptake inhibition in transporter-expressing HEK293 cells; details: for IC50: cells stably expressing DAT, [3H]-dopamine 1 µM, screening cut-off 50 µM; for activity on DAT (reuptake inhibition), in words: at 50 µM
T1 construct: expressed in transfected cells; host or cells: HEK293
Description: (§1) Cell culture. Human embryonic kidney (HEK) 293 or SK-N-MC (human neuroblastoma) cells were grown in minimum essential medium with Earle’s salts and L-glutamine, 10% heat-inactivated fetal bovine serum, and 50 mg/L gentamicin. Cells were grown in 100- or 60-mm diameter tissue culture dishes (polystyrene, Falcon) at 37 °C under an atmosphere of 5% CO2/95% air. The human dopamine transporter/SLC6A3 (DAT), noradrenaline transporter/SLC6A2 (NET), or human serotonin transporter/SLC6A4 (SERT) cDNA was stably expressed using methods as described previously.
(§2) Cellular uptake experiments. The transporter-expressing HEK293 cells were seeded in poly-D-lysine-coated 24-well plates (1 × 10^5 cells/well) and, one day later, each well was washed with 0.5 mL uptake buffer and incubated with 0.5 mL buffer containing various concentrations of the drugs. Uptake was started by the addition of [^3H]-dopamine, [^3H]-noradrenaline, or [^3H]-serotonin at a final concentration of 1 µM (specific activity 0.14 Ci/mmol) after 5 min of preincubation. After incubation for 2.5 min (SERT-cells: 5 min) at 25 °C, it was stopped by aspirating the uptake buffer and washing each well twice with 1 mL ice-cold buffer. Nonspecific uptake was determined in the presence of 10 µM mazindol (DAT- and NET-cells) or 10 µM clomipramine (SERT-cells). The radioactivity remaining in each well was determined by incubating with 0.4 mL 1% sodium dodecyl sulphate and transferring this solution into scintillation vials containing 3 mL of scintillation cocktail (Ultima Gold MV, Packard, Dovners Grove, IL, USA). The uptake buffer consisted of (mmol/L): 4 Tris–HCl; 6.25 4-(2-hydroxyethyl)-1-piperazineethanesulfonic acid (HEPES); 120 NaCl; 5 KCl; 1.2 CaCl2; 1.2 MgSO4; 5.6 D-glucose; 0.5 ascorbic acid; pH 7.1.

[2] = target: T2, noradrenaline transporter/SLC6A2 (NET) (Homo sapiens, UniProt P23975); experiment: Cellular uptake experiments: [3H]-noradrenaline reuptake inhibition in transporter-expressing HEK293 cells
T2 construct: expressed in transfected cells; host or cells: HEK293
Description: as §1, §2

[3] = target: T3, human serotonin transporter/SLC6A4 (SERT) (Homo sapiens, UniProt P31645); experiment: Cellular uptake experiments: [3H]-serotonin reuptake inhibition in transporter-expressing HEK293 cells
T3 construct: expressed in transfected cells; host or cells: HEK293
Description: as §1, §2

[4] = Reuptake Inhibition (IC50 ± SE, µM) DAT
[5] = read-out: Reuptake Inhibition (IC50 ± SE, µM) NET; cells stably expressing NET; [3H]-noradrenaline 1 µM; screening cut-off 50 µM
[6] = read-out: Reuptake Inhibition (IC50 ± SE, µM) SERT; cells stably expressing SERT; [3H]-serotonin 1 µM; screening cut-off 50 µM
[7] = Reuptake Inhibition (IC50 ± SE, µM) NET, cells stably expressing NET; [3H]-noradrenaline 1 µM; screening cut-off 50 µM
[8] = Reuptake Inhibition (IC50 ± SE, µM) SERT, cells stably expressing SERT; [3H]-serotonin 1 µM; screening cut-off 50 µM
[9] = read-out: Reuptake Inhibition (IC50 ± SE, µM) DAT
[10] = cells stably expressing NET; [3H]-noradrenaline 1 µM; screening cut-off 50 µM; read-out: Reuptake Inhibition (IC50 ± SE, µM) NET
[11] = cells stably expressing SERT; [3H]-serotonin 1 µM; screening cut-off 50 µM; read-out: Reuptake Inhibition (IC50 ± SE, µM) SERT
[12] = at 50 µM / tested concentration range

T3 sequence (P31645 whole entry): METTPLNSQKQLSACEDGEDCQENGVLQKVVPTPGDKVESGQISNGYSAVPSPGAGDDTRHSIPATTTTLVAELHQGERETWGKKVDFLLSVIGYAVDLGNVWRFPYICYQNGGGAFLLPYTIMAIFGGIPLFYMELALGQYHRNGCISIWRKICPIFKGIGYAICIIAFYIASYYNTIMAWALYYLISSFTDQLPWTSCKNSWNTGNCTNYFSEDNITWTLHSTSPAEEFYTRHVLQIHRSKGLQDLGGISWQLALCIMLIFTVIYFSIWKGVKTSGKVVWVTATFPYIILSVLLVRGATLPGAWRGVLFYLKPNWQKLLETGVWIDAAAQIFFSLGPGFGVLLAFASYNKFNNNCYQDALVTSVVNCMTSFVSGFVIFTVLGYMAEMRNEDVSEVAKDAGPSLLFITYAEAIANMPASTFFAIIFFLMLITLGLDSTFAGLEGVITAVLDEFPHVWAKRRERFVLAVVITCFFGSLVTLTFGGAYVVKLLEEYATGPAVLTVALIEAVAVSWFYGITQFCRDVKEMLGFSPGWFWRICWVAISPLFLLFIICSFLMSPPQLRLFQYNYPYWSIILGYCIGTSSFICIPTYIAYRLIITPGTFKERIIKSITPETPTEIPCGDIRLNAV
T1 sequence (Q01959 whole entry): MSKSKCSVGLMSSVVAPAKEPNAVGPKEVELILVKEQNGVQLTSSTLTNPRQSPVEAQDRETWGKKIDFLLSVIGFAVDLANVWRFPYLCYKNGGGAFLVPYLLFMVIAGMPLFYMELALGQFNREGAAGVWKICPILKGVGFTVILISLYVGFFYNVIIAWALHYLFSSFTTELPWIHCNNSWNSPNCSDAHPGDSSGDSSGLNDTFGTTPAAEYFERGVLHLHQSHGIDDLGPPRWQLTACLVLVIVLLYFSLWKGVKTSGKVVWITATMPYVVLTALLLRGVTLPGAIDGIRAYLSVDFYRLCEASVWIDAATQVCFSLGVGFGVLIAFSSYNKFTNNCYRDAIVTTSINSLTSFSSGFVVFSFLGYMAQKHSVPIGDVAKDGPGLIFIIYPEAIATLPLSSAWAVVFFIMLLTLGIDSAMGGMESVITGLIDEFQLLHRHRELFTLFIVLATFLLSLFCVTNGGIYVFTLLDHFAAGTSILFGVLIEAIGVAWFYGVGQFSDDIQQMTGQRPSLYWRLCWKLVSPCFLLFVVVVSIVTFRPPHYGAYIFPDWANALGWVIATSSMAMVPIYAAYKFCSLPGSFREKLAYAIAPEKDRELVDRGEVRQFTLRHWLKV
T2 sequence (P23975 whole entry): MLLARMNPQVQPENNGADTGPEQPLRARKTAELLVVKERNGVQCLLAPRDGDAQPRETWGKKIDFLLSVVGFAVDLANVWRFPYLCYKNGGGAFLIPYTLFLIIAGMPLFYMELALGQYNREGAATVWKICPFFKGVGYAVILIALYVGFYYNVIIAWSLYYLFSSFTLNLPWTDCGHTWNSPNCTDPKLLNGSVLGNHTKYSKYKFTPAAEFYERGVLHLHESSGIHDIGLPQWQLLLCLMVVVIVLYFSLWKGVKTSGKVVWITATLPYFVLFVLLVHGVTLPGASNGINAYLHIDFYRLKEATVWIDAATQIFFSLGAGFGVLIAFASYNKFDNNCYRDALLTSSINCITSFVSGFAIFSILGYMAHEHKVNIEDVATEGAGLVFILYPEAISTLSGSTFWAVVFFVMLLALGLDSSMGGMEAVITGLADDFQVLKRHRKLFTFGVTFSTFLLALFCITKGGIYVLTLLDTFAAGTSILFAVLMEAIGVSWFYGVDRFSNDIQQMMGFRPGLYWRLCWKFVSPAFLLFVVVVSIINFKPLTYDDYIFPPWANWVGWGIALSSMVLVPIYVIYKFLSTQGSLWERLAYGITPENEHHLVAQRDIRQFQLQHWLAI

Structure (SMILES) | IC50 [1, 4] [µM] | IC50 [2, 5] [µM] | IC50 [2, 7] [µM] | IC50 [3, 8] [µM] | other results
[O-][S+](Cc1cccs1)C(c1ccccc1)c1ccccc1I (stereo not drawn) [Compound 6i, 2-((((2-iodophenyl)(phenyl)methyl)sulfinyl)methyl)thiophene] | 20.3 ± 0.6 | > 50 | – | – | IC50 [3, 6]: > 50 µM
[O-][S+](Cc1cccs1)C(c1ccccc1)c1cccc(I)c1 (stereo not drawn) [Compound 6j, 2-((((3-iodophenyl)(phenyl)methyl)sulfinyl)methyl)thiophene] | 17.7 ± 2.2 | > 50 | – | – | IC50 [3, 6]: > 50 µM
[O-][S@+](Cc1cccs1)[C@@H](c1ccccc1)c1ccc(I)cc1 [Compound 6k, (R,S)-2-((((4-iodophenyl)(phenyl)methyl)sulfinyl)methyl)thiophene] | 1.1 ± 0.3 | – | > 50 | 3.8 ± 0.5 | –
Cc1ccccc1C(c1ccccc1)[S+]([O-])Cc1cccs1 (stereo not drawn) [Compound 6l, 2-(((phenyl(o-tolyl)methyl)sulfinyl)methyl)thiophene] | – | – | – | – | IC50 [1, 9]: > 50 µM; IC50 [2, 10]: > 50 µM; IC50 [3, 11]: > 50 µM
Cc1cccc([C@H](c2ccccc2)[S@+]([O-])Cc2cccs2)c1 [Compound 6m, (R,S)-2-(((phenyl(m-tolyl)methyl)sulfinyl)methyl)thiophene] | > 50 | – | > 50 | > 50 | –
Cc1ccc(C(c2ccccc2)[S+]([O-])Cc2cccs2)cc1 (stereo not drawn) [Compound 6n, 2-(((phenyl(p-tolyl)methyl)sulfinyl)methyl)thiophene] | – | > 50 | – | – | IC50 [1, 9]: > 50 µM; IC50 [3, 11]: > 50 µM
[O-][S+](Cc1cccs1)C(c1ccccc1)c1ccccc1C(F)(F)F (stereo not drawn) [Compound 6o, 2-(((phenyl(2-(trifluoromethyl)phenyl)methyl)sulfinyl)methyl)thiophene] | > 50 | – | > 50 | – | IC50 [3, 6]: > 50 µM
[O-][S+](Cc1cccs1)C(c1ccccc1)c1cccc(C(F)(F)F)c1 (stereo not drawn) [Compound 6p, 2-(((phenyl(3-(trifluoromethyl)phenyl)methyl)sulfinyl)methyl)thiophene] | 22 ± 1 | > 50 | – | > 50 | –
[O-][S+](Cc1cccs1)C(c1ccccc1)c1ccc(C(F)(F)F)cc1 (stereo not drawn) [Compound 6q, 2-(((phenyl(4-(trifluoromethyl)phenyl)methyl)sulfinyl)methyl)thiophene] | 40 ± 9 | > 50 | – | > 50 | –
COc1ccccc1[C@H](c1ccccc1)[S@@+]([O-])Cc1cccs1 [Compound 6r, (S,S)-2-((((2-methoxyphenyl)(phenyl)methyl)sulfinyl)methyl)thiophene] | > 50 | – | > 50 | > 50 | –
COc1cccc(C(c2ccccc2)[S+]([O-])Cc2cccs2)c1 (stereo not drawn) [Compound 6s, 2-((((3-methoxyphenyl)(phenyl)methyl)sulfinyl)methyl)thiophene] | 5.41 ± 0.99 | > 50 | – | 35 ± 3 | –
COc1ccc([C@@H](c2ccccc2)[S@+]([O-])Cc2cccs2)cc1 [Compound 6t, (R,R)-2-((((4-methoxyphenyl)(phenyl)methyl)sulfinyl)methyl)thiophene] | 17 ± 3 | – | > 50 | 11 ± 3 | –
[O-][S+](Cc1cccs1)C(c1ccc(F)cc1)c1ccc(Cl)cc1 (stereo not drawn) [Compound 6u, 2-((((4-chlorophenyl)(4-fluorophenyl)methyl)sulfinyl)methyl)thiophene] | 12 ± 2 | > 50 | – | – | IC50 [3, 6]: > 50 µM
[O-][S@+](Cc1cccs1)[C@@H](c1ccccc1)c1ccccc1F [Compound 7a, (R,S)-2-((((2-fluorophenyl)(phenyl)methyl)sulfinyl)methyl)thiophene] | – | – | – | – | IC50 [1, 9]: 8.25 ± 0.16 µM; IC50 [2, 10]: > 50 µM; IC50 [3, 11]: > 50 µM
[O-][S+](Cc1cccs1)C(c1ccccc1)c1cccc(F)c1 (stereo not drawn) [Compound 7b, 2-((((3-fluorophenyl)(phenyl)methyl)sulfinyl)methyl)thiophene] | – | – | – | – | IC50 [1, 9]: 2.3 ± 0.2 µM; IC50 [2, 10]: > 50 µM; IC50 [3, 11]: > 50 µM
[O-][S+](Cc1cccs1)C(c1ccccc1)c1ccc(F)cc1 (stereo not drawn) [Compound 7c, 2-((((4-fluorophenyl)(phenyl)methyl)sulfinyl)methyl)thiophene] | – | – | – | – | IC50 [1, 9]: 2.1 ± 0.6 µM; IC50 [2, 10]: > 50 µM; IC50 [3, 11]: > 50 µM
[O-][S@+](Cc1cccs1)[C@@H](c1ccccc1)c1ccccc1Cl [Compound 7d, (R,S)-2-((((2-chlorophenyl)(phenyl)methyl)sulfinyl)methyl)thiophene] | – | – | – | – | activity on DAT (reuptake inhibition), in words [1]: did not achieve ≥50% of radioligand displacement; IC50 [1, 9]: > 50 µM; activity on NET (reuptake inhibition), in words [2, 12]: did not achieve ≥50% of radioligand displacement; IC50 [2, 10]: > 50 µM; activity on SERT (reuptake inhibition), in words [3, 12]: did not achieve ≥50% of radioligand displacement; IC50 [3, 11]: > 50 µM
[O-][S@@+](Cc1cccs1)[C@@H](c1ccccc1)c1cccc(Cl)c1 [Compound 7e, (S,S)-2-((((3-chlorophenyl)(phenyl)methyl)sulfinyl)methyl)thiophene] | 0.63 ± 0.17 | – | 29 ± 4 | > 50 | –
[O-][S@@+](Cc1cccs1)[C@@H](c1ccccc1)c1ccc(Cl)cc1 [Compound 7f, (S,S)-2-((((4-chlorophenyl)(phenyl)methyl)sulfinyl)methyl)thiophene] | 4 ± 1 | – | > 50 | > 50 | –
[O-][S+](Cc1cccs1)C(c1ccccc1)c1ccccc1Br (stereo not drawn) [Compound 7g, 2-((((2-bromophenyl)(phenyl)methyl)sulfinyl)methyl)thiophene] | > 50 | > 50 | – | – | activity on DAT (reuptake inhibition), in words [1]: no effect; activity on NET (reuptake inhibition), in words [2, 12]: no effect; activity on SERT (reuptake inhibition), in words [3, 12]: no effect; IC50 [3, 6]: > 50 µM
[O-][S+](Cc1cccs1)C(c1ccccc1)c1ccccc1I (stereo not drawn) [Compound 7i, 2-((((2-iodophenyl)(phenyl)methyl)sulfinyl)methyl)thiophene] | 28.4 ± 2.8 | > 50 | – | – | IC50 [3, 6]: > 50 µM
[O-][S+](Cc1cccs1)C(c1ccccc1)c1cccc(I)c1 (stereo not drawn) [Compound 7j, 2-((((3-iodophenyl)(phenyl)methyl)sulfinyl)methyl)thiophene] | 1.46 ± 0.06 | > 50 | – | – | IC50 [3, 6]: > 50 µM
[O-][S@@+](Cc1cccs1)[C@@H](c1ccccc1)c1ccc(I)cc1 [Compound 7k, (S,S)-2-((((4-iodophenyl)(phenyl)methyl)sulfinyl)methyl)thiophene] | > 50 | – | > 50 | > 50 | –
Cc1ccccc1C(c1ccccc1)[S+]([O-])Cc1cccs1 (stereo not drawn) [Compound 7l, 2-(((phenyl(o-tolyl)methyl)sulfinyl)methyl)thiophene] | – | – | – | – | IC50 [1, 9]: 3.8 ± 0.5 µM; IC50 [2, 10]: > 50 µM; IC50 [3, 11]: > 50 µM
Cc1cccc([C@H](c2ccccc2)[S@@+]([O-])Cc2cccs2)c1 [Compound 7m, (S,S)-2-(((phenyl(m-tolyl)methyl)sulfinyl)methyl)thiophene] | 1.2 ± 0.09 | – | 49 ± 3 | > 50 | –
Cc1ccc([C@H](c2ccccc2)[S@@+]([O-])Cc2cccs2)cc1 [Compound 7n, (S,S)-2-(((phenyl(p-tolyl)methyl)sulfinyl)methyl)thiophene] | – | – | > 50 | – | IC50 [1, 9]: 1.63 ± 0.1 µM; IC50 [3, 11]: > 50 µM
[O-][S+](Cc1cccs1)C(c1ccccc1)c1ccccc1C(F)(F)F (stereo not drawn) [Compound 7o, 2-(((phenyl(2-(trifluoromethyl)phenyl)methyl)sulfinyl)methyl)thiophene] | > 50 | – | > 50 | – | IC50 [3, 6]: > 50 µM
[O-][S+](Cc1cccs1)C(c1ccccc1)c1cccc(C(F)(F)F)c1 (stereo not drawn) [Compound 7p, 2-(((phenyl(3-(trifluoromethyl)phenyl)methyl)sulfinyl)methyl)thiophene] | 10 ± 1 | > 50 | – | > 50 | –
[O-][S+](Cc1cccs1)C(c1ccccc1)c1ccc(C(F)(F)F)cc1 (stereo not drawn) [Compound 7q, 2-(((phenyl(4-(trifluoromethyl)phenyl)methyl)sulfinyl)methyl)thiophene] | 24 ± 1 | > 50 | – | > 50 | –
